These results are taken from PMC8185074, “Anchor extension: a structure-guided approach to design cyclic peptides targeting enzyme active sites” (Nature Communications, 2021).

The subject of assay [1] is HDAC6. Particulars: Supp. Table 1; cited from earlier work.
Assay [2] addresses T1, HDAC4 (Homo sapiens, UniProt P56524).
T1 construct: purchased BPS Biosciences
Particulars: Supp. Table 1; cited from earlier work.

Assay [3] addresses T2, HDAC6 (Homo sapiens, UniProt Q9UBN7).
T2 construct: purchased Reaction Biology Corporation (assay run by the CRO)
T2 sequence (Q9UBN7 1-1215): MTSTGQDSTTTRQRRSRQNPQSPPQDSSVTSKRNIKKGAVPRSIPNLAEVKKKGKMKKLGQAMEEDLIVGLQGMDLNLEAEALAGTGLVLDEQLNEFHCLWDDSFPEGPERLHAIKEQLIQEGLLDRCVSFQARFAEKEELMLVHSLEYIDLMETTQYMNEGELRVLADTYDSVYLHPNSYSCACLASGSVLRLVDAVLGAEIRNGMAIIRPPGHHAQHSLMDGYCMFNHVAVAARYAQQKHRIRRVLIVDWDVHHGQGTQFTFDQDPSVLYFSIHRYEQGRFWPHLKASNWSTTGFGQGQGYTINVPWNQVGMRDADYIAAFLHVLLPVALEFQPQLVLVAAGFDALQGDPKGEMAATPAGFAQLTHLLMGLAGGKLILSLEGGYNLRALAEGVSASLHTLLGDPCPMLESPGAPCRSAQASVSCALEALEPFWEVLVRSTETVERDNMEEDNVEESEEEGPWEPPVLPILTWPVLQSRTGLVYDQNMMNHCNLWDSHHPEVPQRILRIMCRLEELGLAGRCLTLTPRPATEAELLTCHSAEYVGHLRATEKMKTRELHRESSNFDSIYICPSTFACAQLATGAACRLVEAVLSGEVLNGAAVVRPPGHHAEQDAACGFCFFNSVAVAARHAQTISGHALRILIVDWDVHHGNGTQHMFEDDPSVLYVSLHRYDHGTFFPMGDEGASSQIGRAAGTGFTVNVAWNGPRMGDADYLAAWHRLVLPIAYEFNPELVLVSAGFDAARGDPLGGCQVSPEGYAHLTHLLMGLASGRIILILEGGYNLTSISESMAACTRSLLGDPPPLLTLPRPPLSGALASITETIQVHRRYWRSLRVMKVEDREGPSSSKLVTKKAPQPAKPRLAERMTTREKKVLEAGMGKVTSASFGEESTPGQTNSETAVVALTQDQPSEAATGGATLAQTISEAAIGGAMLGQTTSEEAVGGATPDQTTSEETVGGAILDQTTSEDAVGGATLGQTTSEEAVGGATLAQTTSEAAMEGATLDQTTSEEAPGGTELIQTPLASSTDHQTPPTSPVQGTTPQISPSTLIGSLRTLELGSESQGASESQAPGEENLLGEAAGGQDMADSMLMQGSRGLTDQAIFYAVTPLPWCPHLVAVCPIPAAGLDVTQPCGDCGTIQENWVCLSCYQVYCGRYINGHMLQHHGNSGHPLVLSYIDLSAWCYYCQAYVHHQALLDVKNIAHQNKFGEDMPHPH
The assay is described as follows: HDAC6 inhibition, full IC50 measurement (Reaction Biology; fluorogenic p53 peptide RHKK(Ac)AMC). The assay is classed as biochemical. Particulars: single trial. An outline of the steps: (§1)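 Reaction: enzyme plus acoustically dispensed peptide inhibitor, 50 μM RHKK(Ac)AMC substrate, pH 8.0 Tris buffer with BSA and 1% DMSO, 1 h, 30 °C. Duplicates averaged.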

Assay [4] addresses T3, HDAC3 (Homo sapiens, UniProt O15379).
T3 construct: purchased Reaction Biology Corporation (assay run by the CRO)
The assay is described as follows: HDAC3 inhibition, full IC50 measurement (Reaction Biology; fluorogenic p53 peptide RHKK(Ac)AMC). Particulars: single trial. In kind it is biochemical. How it is done:
The assay was performed using 50 μM fluorogenic peptide from p53 residues 379-382 [RHKK(Ac)AMC] in a base reaction buffer of 50 mM Tris-HCl at pH 8.0, 137 mM NaCl, 2.7 mM KCl, 1 mM MgCl2, and freshly added 1 mg/ml BSA and 1% DMSO. Peptides were first dissolved in DMSO and then added to the reaction mixture with the enzyme using acoustic technique, enough to reach the desired concentration for that assay point. Peptide concentrations were calculated based on mass of lyophilized peptide and its molecular weight. The substrate was then added and incubated for 1 hour at 30 °C in a sealed container. After the incubation, developer was added to stop the reaction and develop color. Kinetic measurements were then performed for 20 min with Envision with 5 min intervals (Ex/Em = 360/460 nm). The endpoint after plateau was taken for IC50 measurement.
In cases where duplicate measures are used, average data is reported in the main text or Supplementary Tables.

The target of assay [5] is T4, HDAC2 (Homo sapiens, UniProt Q92769).
T4 construct: purchased Reaction Biology Corporation (assay run by the CRO)
T4 sequence (Q92769 whole entry): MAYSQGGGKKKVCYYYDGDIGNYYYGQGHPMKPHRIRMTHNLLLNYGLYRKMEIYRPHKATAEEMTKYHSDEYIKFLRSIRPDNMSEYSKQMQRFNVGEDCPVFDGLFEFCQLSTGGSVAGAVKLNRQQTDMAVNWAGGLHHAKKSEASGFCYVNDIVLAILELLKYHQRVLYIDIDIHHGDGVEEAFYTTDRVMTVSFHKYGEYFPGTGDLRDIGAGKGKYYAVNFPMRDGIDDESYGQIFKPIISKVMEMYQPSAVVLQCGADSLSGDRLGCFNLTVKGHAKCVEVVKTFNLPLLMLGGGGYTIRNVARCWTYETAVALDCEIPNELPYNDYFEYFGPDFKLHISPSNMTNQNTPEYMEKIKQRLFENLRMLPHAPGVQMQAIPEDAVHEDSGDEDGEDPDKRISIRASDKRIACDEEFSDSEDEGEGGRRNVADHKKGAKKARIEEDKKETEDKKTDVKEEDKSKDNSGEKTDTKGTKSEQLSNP
The assay is described as follows: Initial HDAC2 IC50 estimate (BPS Biosciences HDAC fluorogenic assay kit). In kind it is biochemical. Particulars: Supplementary Dataset 2; read-out: HDAC2 activity (initial activity). How it is done: Initial IC50 values were estimated using HDAC fluorogenic assay kits from BPS Biosciences (HDAC2, HDAC4, and HDAC6) following the protocol described in the kit. All the measures were performed in duplicates or triplicates. These measurements were done either on full range of concentrations (1:10 dilution from 1 µM to 100 pM) or on two concentrations only (20 nM and 200 nM) as an estimate of the range. […] Source Data are provided as a Source Data file.

In assay [6] the target is T4, HDAC2. The assay is described as follows: HDAC2 inhibition, full IC50 measurement (Reaction Biology; fluorogenic p53 peptide RHKK(Ac)AMC). In kind it is biochemical. The following applies: for HDAC2 activity raw data (signal): single trial. The procedure, abridged: as §1

Peptide text beside a SMILES is read from it.

T3 sequence (O15379 whole entry): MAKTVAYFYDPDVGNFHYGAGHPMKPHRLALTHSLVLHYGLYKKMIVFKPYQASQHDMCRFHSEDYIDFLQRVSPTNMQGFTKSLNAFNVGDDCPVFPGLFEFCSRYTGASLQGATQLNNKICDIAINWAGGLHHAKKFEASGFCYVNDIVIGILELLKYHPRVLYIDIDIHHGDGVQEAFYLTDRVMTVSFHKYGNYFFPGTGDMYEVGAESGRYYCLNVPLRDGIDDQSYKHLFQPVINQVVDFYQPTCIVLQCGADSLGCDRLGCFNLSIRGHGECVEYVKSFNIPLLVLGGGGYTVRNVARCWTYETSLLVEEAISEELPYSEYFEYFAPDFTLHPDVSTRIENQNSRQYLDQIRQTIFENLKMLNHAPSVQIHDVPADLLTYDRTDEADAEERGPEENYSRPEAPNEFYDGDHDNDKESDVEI
T3 sequence (Q9Y618 395-489 partner limits assumed): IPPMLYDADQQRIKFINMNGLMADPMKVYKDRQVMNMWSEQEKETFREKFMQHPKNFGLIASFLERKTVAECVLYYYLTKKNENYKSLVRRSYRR
T1 sequence (P56524 whole entry): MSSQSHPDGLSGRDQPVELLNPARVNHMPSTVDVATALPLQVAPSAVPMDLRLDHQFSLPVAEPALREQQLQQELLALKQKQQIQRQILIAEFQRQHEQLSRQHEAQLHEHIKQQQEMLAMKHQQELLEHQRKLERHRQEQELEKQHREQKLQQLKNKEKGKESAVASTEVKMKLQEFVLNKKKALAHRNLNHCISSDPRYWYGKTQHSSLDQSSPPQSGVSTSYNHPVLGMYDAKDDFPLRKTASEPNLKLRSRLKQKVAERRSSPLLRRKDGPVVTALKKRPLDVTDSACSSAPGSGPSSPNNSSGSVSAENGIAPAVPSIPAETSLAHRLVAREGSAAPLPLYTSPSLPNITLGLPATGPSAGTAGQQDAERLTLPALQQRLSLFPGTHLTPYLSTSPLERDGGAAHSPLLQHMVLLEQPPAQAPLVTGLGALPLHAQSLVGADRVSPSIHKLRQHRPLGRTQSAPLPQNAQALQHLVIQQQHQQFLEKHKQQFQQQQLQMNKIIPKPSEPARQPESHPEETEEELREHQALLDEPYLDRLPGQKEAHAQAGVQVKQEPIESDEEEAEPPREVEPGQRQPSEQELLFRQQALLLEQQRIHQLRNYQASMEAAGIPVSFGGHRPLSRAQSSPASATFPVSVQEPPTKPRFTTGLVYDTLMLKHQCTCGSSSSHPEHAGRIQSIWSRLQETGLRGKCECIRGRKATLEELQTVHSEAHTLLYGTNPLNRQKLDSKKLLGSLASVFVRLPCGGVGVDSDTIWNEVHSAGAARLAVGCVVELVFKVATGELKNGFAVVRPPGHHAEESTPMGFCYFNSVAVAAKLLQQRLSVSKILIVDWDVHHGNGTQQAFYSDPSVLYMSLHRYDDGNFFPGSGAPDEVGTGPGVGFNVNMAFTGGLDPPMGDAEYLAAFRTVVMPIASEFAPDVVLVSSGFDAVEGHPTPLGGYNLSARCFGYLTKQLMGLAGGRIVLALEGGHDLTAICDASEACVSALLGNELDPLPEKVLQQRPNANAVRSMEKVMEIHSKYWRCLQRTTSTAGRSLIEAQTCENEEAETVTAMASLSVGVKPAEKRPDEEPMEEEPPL

Turning to Trapoxin B, the IC50 was 360 ± 160 nM in assay [1] and 0.3 ± 0.03 nM in assay [2].
In the case of `NCCCC[C@@H]1NC(=O)[C@@H](CC(N)=O)NC(=O)[C@H]2CCCN2C(=O)[C@@H](Cc2c[nH]cn2)NC(=O)[C@H](Cc2ccc(O)cc2)NC(=O)[C@H](CCCCCS)NC(=O)[C@H](CCc2ccccc2)NC1=O` [des3.2.4, SHA-Tyr-dHis-dPro-dAsn-Lys-C27] (HELM PEPTIDE1{K.[O=C([C@H](CCc1ccccc1)N[*:1])[*:2]].[O=C([C@H](CCCCCS)N[*:1])[*:2]].Y.[dH].[dP].[dN]}$PEPTIDE1,PEPTIDE1,1:R1-7:R2$$$V2.0), the “HDAC6 activity raw data (signal)” value in assay [3] (Conc. 1.00E-04 M) is on record as -2801; in assay [3] (Conc. 1.11E-05 M) it was -1849; in assay [3] (Conc. 1.23E-06 M) it was 4374; in assay [3] (Conc. 1.37E-07 M), 43765; in assay [3] (Conc. 1.52E-08 M) it was 190706; in assay [3] (Conc. 3.33E-05 M), -563. The “HDAC6 activity raw data (signal)” value in assay [3] (Conc. 3.70E-06 M) is recorded as -1989; in assay [3] (Conc. 4.12E-07 M), 12736; in assay [3] (Conc. 4.57E-08 M), 97833; in assay [3] (Conc. 5.08E-09 M), 278125. Moreover, the “HDAC3 activity raw data (signal)” value in assay [4] (Conc. 1.00E-04 M) is -9402; in assay [4] (Conc. 1.11E-05 M), 593; in assay [4] (Conc. 1.23E-06 M), 35444; in assay [4] (Conc. 1.37E-07 M), 204357; in assay [4] (Conc. 1.52E-08 M), 337866; in assay [4] (Conc. 3.33E-05 M), -3894. Further, the “HDAC3 activity raw data (signal)” value was determined as 11659 in assay [4] (Conc. 3.70E-06 M), 78893 in assay [4] (Conc. 4.12E-07 M), 259781 in assay [4] (Conc. 4.57E-08 M) and 427232 in assay [4] (Conc. 5.08E-09 M). The IC50 in assay [5] was 54 nM. Further, in assay [6], the “2-Selectivity: fold potency for HDAC2 over HDAC6” value was found to be 0.43 fold. Moreover, the “HDAC2 activity raw data (signal)” value in assay [6] (Conc. 1.00E-04 M) was -2073; in assay [6] (Conc. 1.11E-05 M), 877; in assay [6] (Conc. 1.23E-06 M), 16887; in assay [6] (Conc. 1.37E-07 M), 156676; in assay [6] (Conc. 1.52E-08 M) it was 359436; in assay [6] (Conc. 3.33E-05 M) it was -5431. The “HDAC2 activity raw data (signal)” value in assay [6] (Conc. 3.70E-06 M) is -8111; in assay [6] (Conc. 4.12E-07 M) it was 83192; in assay [6] (Conc. 4.57E-08 M) it was 254992; in assay [6] (Conc. 5.08E-09 M), 399941.
In the case of `N=C(N)NCCC[C@H]1NC(=O)[C@H]2CCCN2C(=O)[C@@H](Cc2c[nH]cn2)NC(=O)[C@H](Cc2ccc(O)cc2)NC(=O)[C@H](CCCCCS)NC(=O)[C@H](CCc2ccccc2)NC(=O)[C@H](CCCCN)NC1=O` [des3.2.5, SHA-Tyr-dHis-dPro-dArg-Lys-C27] (HELM PEPTIDE1{K.[O=C([C@H](CCc1ccccc1)N[*:1])[*:2]].[O=C([C@H](CCCCCS)N[*:1])[*:2]].Y.[dH].[dP].[dR]}$PEPTIDE1,PEPTIDE1,1:R1-7:R2$$$V2.0), the “HDAC6 activity raw data (signal)” value in assay [3] (Conc. 1.00E-04 M) was -6596; in assay [3] (Conc. 1.11E-05 M), -4177; in assay [3] (Conc. 1.23E-06 M) it was 2489; in assay [3] (Conc. 1.37E-07 M) it was 40408; in assay [3] (Conc. 1.52E-08 M), 187931; in assay [3] (Conc. 3.33E-05 M), -7167. Besides, the “HDAC6 activity raw data (signal)” value in assay [3] (Conc. 3.70E-06 M) came out at 1736; in assay [3] (Conc. 4.12E-07 M) it was 17454; in assay [3] (Conc. 4.57E-08 M), 101146; in assay [3] (Conc. 5.08E-09 M) it was 300973. Moreover, the “HDAC3 activity raw data (signal)” value in assay [4] (Conc. 1.00E-04 M) is on record as -14418; in assay [4] (Conc. 1.11E-05 M) it was 6191; in assay [4] (Conc. 1.23E-06 M), 36941; in assay [4] (Conc. 1.37E-07 M) it was 210610; in assay [4] (Conc. 1.52E-08 M) it was 383928; in assay [4] (Conc. 3.33E-05 M) it was -3999. In addition, the “HDAC3 activity raw data (signal)” value came to 13003 in assay [4] (Conc. 3.70E-06 M), 93966 in assay [4] (Conc. 4.12E-07 M), 285917 in assay [4] (Conc. 4.57E-08 M) and 409923 in assay [4] (Conc. 5.08E-09 M). Moreover, in assay [5], the IC50 is 95 nM. Moreover, the “2-Selectivity: fold potency for HDAC2 over HDAC6” value in assay [6] came to 0.40 fold. Besides, the “HDAC2 activity raw data (signal)” value was -10024 in assay [6] (Conc. 1.00E-04 M); -3664 in assay [6] (Conc. 1.11E-05 M); 23341 in assay [6] (Conc. 1.23E-06 M); 186535 in assay [6] (Conc. 1.37E-07 M); 378556 in assay [6] (Conc. 1.52E-08 M); -4061 in assay [6] (Conc. 3.33E-05 M). Moreover, the “HDAC2 activity raw data (signal)” value is listed as 7985 in assay [6] (Conc. 3.70E-06 M), 87059 in assay [6] (Conc. 4.12E-07 M), 320609 in assay [6] (Conc. 4.57E-08 M) and 410566 in assay [6] (Conc. 5.08E-09 M).
